The subject of the experiment is CD2F1 mice, P1798 lymphosarcoma sc, tumor weight T/C. Nature of the experiment: NCI In Vivo Anticancer Drug Screen. Data for tumor model P1798 Lymphosarcoma (subcutaneous) in CD2F1 (CDF1) mice. As to conditions: endpoint: mean tumor weight, higher = larger tumour. The protocol:
The antitumor activity of compounds was measured in mice bearing transplantable tumors. Survival or tumor size were measured and the results are expressed as the measurement made in the treated group (T) divided by the measurement made in the vehicle treated control group (C). The tumor model used in this assay is P1798 Lymphosarcoma (subcutaneous) in CD2F1 (CDF1) mice

Setting [1] is: dose: 50.0 mg/kg/injection, schedule: Q01DX010 (ip), vehicle: saline.
[2] abbreviates: dose: 100.0 mg/kg/injection, schedule: Q01DX010 (ip), vehicle: saline.
Setting [3] is: dose: 200.0 mg/kg/injection, schedule: Q01DX010 (ip), vehicle: saline.
Where [4] appears, read: dose: 400.0 mg/kg/injection, schedule: Q01DX010 (ip), vehicle: saline.
The mark [5] stands for this setting: dose: 6.25 mg/kg/injection, schedule: Q01DX010 (ip), vehicle: saline.
The mark [6] stands for this setting: dose: 12.5 mg/kg/injection, schedule: Q01DX010 (ip), vehicle: saline.
The mark [7] stands for this setting: dose: 25.0 mg/kg/injection, schedule: Q01DX010 (ip), vehicle: saline.
The mark [8] stands for this setting: dose: 5.0 mg/kg/injection, schedule: Q01DX010 (ip), vehicle: saline.
Where [9] appears, read: dose: 10.0 mg/kg/injection, schedule: Q01DX010 (ip), vehicle: saline.
[10] abbreviates: dose: 20.0 mg/kg/injection, schedule: Q01DX010 (ip), vehicle: saline.
Setting [11] is: dose: 40.0 mg/kg/injection, schedule: Q01DX010 (ip), vehicle: saline.
The mark [12] stands for this setting: dose: 3.0 mg/kg/injection, schedule: Q01DX010 (ip), vehicle: saline.
Where [13] appears, read: dose: 12.0 mg/kg/injection, schedule: Q01DX010 (ip), vehicle: saline.
The mark [14] stands for this setting: dose: 22.5 mg/kg/injection, schedule: Q01DX010 (ip), vehicle: saline.
Setting [15] is: dose: 45.0 mg/kg/injection, schedule: Q01DX010 (ip), vehicle: saline.
The mark [16] stands for this setting: dose: 60.0 mg/kg/injection, schedule: Q01DX010 (ip), vehicle: saline.
The mark [17] stands for this setting: dose: 90.0 mg/kg/injection, schedule: Q01DX010 (ip), vehicle: saline.
Setting [18] is: dose: 12.5 mg/kg/injection, schedule: Q01DX010 (sc), vehicle: steriod suspending solution.
Where [19] appears, read: dose: 25.0 mg/kg/injection, schedule: Q01DX010 (sc), vehicle: steriod suspending solution.
Where [20] appears, read: dose: 50.0 mg/kg/injection, schedule: Q01DX010 (sc), vehicle: steriod suspending solution.

Several values for one entry are separate records, joined by “and”; a condition that tells them apart may be missing. Equal values may be shown once.

Regarding `CO[C@@H]1[C@@H](OC2OC(C)C(OC3CC(C)(O)C(OC(=O)CC(C)C)C(C)O3)C(N(C)C)C2O)[C@@H](CC=O)C[C@@H](C)C(=O)/C=C/C2O[C@H]2C[C@@H](C)OC(=O)C[C@H]1OC(C)=O` (some centres not stated), the T/C (usually the result in the treated group divided by that in the control group, in per cent) is 89 % of control under setting [1]; 105 % of control (dose: 75.0 mg/kg/injection, schedule: Q01DX010 (ip), vehicle: saline); 90 % of control under setting [2]; 90 % of control (dose: 150.0 mg/kg/injection, schedule: Q01DX010 (ip), vehicle: saline); 95 % of control under setting [3]; 21 % of control (dose: 300.0 mg/kg/injection, schedule: Q01DX010 (ip), vehicle: saline). The T/C under setting [4] was 71 % of control.
Consider `NCCCCCCNCCCCCCN`, for which the T/C was 90 % of control under setting [5]; 89 % of control under setting [6]; 100 % of control and 78 % of control under setting [7]; 50 % of control and 70 % of control under setting [1].
In the case of `O=c1[nH]c(=O)n(C2CC(O)C(CO)O2)cc1F` (configuration not stated), the T/C was 73 % of control under setting [8]; 68 % of control and 84 % of control under setting [9]; 47 % of control and 55 % of control under setting [10]; 15 % of control and 28 % of control under setting [11]; 1 % of control (dose: 80.0 mg/kg/injection, schedule: Q01DX010 (ip), vehicle: saline).
As for `N=C(N)c1ccc(Nc2ccc(C(=N)N)cc2)cc1`, the T/C (dose: 1.5 mg/kg/injection, schedule: Q01DX010 (ip), vehicle: saline) was 85 % of control; the T/C under setting [12] was 82 % of control; the T/C (dose: 6.0 mg/kg/injection, schedule: Q01DX010 (ip), vehicle: saline) is 119 % of control; the T/C under setting [13] was 77 % of control.
For `CN(N=O)C(=O)NC(C=O)C(O)C(O)C(O)CO` (configuration not stated), the T/C under setting [14] was 43 % of control; the T/C under setting [11] was 97 % of control; the T/C under setting [15] is 53 % of control; the T/C under setting [16] is 64 % of control; the T/C under setting [17] is 24 % of control and 29 % of control.
On to `S=P(N1CCOCC1)(N1CC1)N1CC1`, for which the T/C reads like this: under setting [9], 50 % of control and 75 % of control; under setting [10], 24 % of control.
For the compound `C[C@H]1C(=O)O[C@@H]2CCN3CC=C(COC(=O)[C@](C)(O)[C@@]1(C)O)[C@H]23`, the T/C reads like this: (dose: 3.13 mg/kg/injection, schedule: Q01DX010 (ip), vehicle: saline) 74 % of control and 79 % of control; under setting [5], 77 % of control; under setting [6], 62 % of control and 80 % of control.
As for `CC(=O)[C@@]1(O)CC[C@H]2[C@@H]3C[C@H](C)C4=CC(=O)C=C[C@]4(C)[C@@]3(F)[C@@H](O)C[C@@]21C`, the T/C runs as follows: (dose: 12.5 mg/kg/injection, schedule: Q01DX005 (sc), vehicle: steriod suspending solution) 3 % of control; under setting [18], 18 % of control and 41 % of control; (dose: 25.0 mg/kg/injection, schedule: Q01DX005 (sc), vehicle: steriod suspending solution) 3 % of control; (dose: 25.0 mg/kg/injection, schedule: Q02DX010 (sc), vehicle: steriod suspending solution) 98 % of control; (dose: 50.0 mg/kg/injection, schedule: Q01DX005 (sc), vehicle: steriod suspending solution) 2 % of control; (dose: 50.0 mg/kg/injection, schedule: Q02DX010 (sc), vehicle: steriod suspending solution) 93 % of control. The T/C reads like this: (dose: 100.0 mg/kg/injection, schedule: Q01DX005 (sc), vehicle: steriod suspending solution) 1 % of control; (dose: 100.0 mg/kg/injection, schedule: Q02DX010 (sc), vehicle: steriod suspending solution) 98 % of control.
For the compound `C[C@]12CCC(=O)C=C1CC[C@@H]1[C@@H]2CC[C@@]2(C)[C@H]1CC[C@]2(C)O`, the T/C is 91 % of control under setting [18]; 61 % of control under setting [19]; 90 % of control under setting [20]; 97 % of control (dose: 100.0 mg/kg/injection, schedule: Q01DX010 (sc), vehicle: steriod suspending solution).
In the case of `C=C(C)C(=O)O[C@H]1CC2=C[C@@H](C[C@@]3(C)O[C@@H]3[C@H]3OC(=O)C(=C)[C@@H]31)OC2=O`, the T/C (dose: 2.5 mg/kg/injection, schedule: Q01DX011 (sc), vehicle: saline) was 94 % of control; the T/C (dose: 5.0 mg/kg/injection, schedule: Q01DX011 (sc), vehicle: saline) is 73 % of control; the T/C (dose: 10.0 mg/kg/injection, schedule: Q01DX011 (sc), vehicle: saline) is 116 % of control.
Turning to `NC1(C(=O)O)CCCC1`, the T/C by setting is: under setting [14], 40 % of control and 48 % of control; under setting [15], 21 % of control and 38 % of control; under setting [17], 4 % of control.
In the case of `C[C@H]1C[C@@H]2[C@H]([C@@H](O)C[C@@]3(C)[C@H]2CC[C@]3(O)C(=O)CO)[C@@]2(C)C=CC(=O)C=C12`, the T/C under setting [20] is 7 % of control.
On to `C[C@]12CC[C@@H]3c4ccc(O)cc4CC[C@H]3[C@@H]1C[C@@H](O)[C@@H]2O`, for which the T/C runs as follows: (dose: 6.25 mg/kg/injection, schedule: Q01DX010 (sc), vehicle: steriod suspending solution) 73 % of control and 86 % of control; under setting [19], 69 % of control and 86 % of control.
With `O=C(Nc1ccc(C2=NCCN2)cc1)c1ccc(C(=O)Nc2ccc(C3=NCCN3)cc2)cc1`, the T/C is 76 % of control (dose: 16.0 mg/kg/injection, schedule: Q01DX010 (ip), vehicle: saline); 77 % of control (dose: 32.0 mg/kg/injection, schedule: Q01DX010 (ip), vehicle: saline); 73 % of control (dose: 64.0 mg/kg/injection, schedule: Q01DX010 (ip), vehicle: saline); 47 % of control (dose: 128.0 mg/kg/injection, schedule: Q01DX010 (ip), vehicle: saline).
In the case of `CC(=O)OCC(=O)[C@@]1(O)CC[C@H]2[C@@H]3CCC4=CC(=O)C=C[C@]4(C)[C@H]3[C@@H](O)C[C@@]21C`, the T/C was 92 % of control (dose: 2.5 mg/kg/injection, schedule: Q01DX Z (sc), vehicle: steriod suspending solution); 20 % of control (dose: 5.0 mg/kg/injection, schedule: Q01DX010 (sc), vehicle: steriod suspending solution); 107 % of control (dose: 5.0 mg/kg/injection, schedule: Q01DX Z (sc), vehicle: steriod suspending solution); 4 % of control (dose: 10.0 mg/kg/injection, schedule: Q01DX010 (sc), vehicle: steriod suspending solution); 100 % of control and 88 % of control (dose: 10.0 mg/kg/injection, schedule: Q01DX Z (sc), vehicle: steriod suspending solution); 5 % of control (dose: 20.0 mg/kg/injection, schedule: Q01DX010 (sc), vehicle: steriod suspending solution). The T/C runs as follows: (dose: 20.0 mg/kg/injection, schedule: Q01DX Z (sc), vehicle: steriod suspending solution) 119 % of control; (dose: 40.0 mg/kg/injection, schedule: Q01DX010 (sc), vehicle: steriod suspending solution) 5 % of control; (dose: 40.0 mg/kg/injection, schedule: Q01DX Z (sc), vehicle: steriod suspending solution) 77 % of control; (dose: 80.0 mg/kg/injection, schedule: Q01DX Z (sc), vehicle: steriod suspending solution) 57 % of control.
As for `CS(=O)(=O)OCCC(=O)N1CCN(C(=O)CCOS(C)(=O)=O)CC1`, the T/C is, setting by setting: under setting [6], 77 % of control; under setting [7], 71 % of control; under setting [1], 7 % of control; under setting [2], 4 % of control.
Turning to `CC(=O)NCCCCCCNCCCCCCNC(C)=O`, the T/C under setting [1] is 99 % of control, the T/C under setting [2] was 92 % of control, the T/C under setting [3] is 102 % of control and the T/C under setting [4] is 80 % of control.
Regarding `c1ccc(COCC[P+](c2ccccc2)(c2ccccc2)c2ccccc2)cc1`, the T/C reads like this: under setting [12], 76 % of control; under setting [8], 98 % of control; (dose: 8.0 mg/kg/injection, schedule: Q01DX010 (ip), vehicle: saline) 88 % of control; under setting [13], 33 % of control.
Consider `Cc1ccc2[nH]c3nc4cc(C)c(C)cc4nc3c2c1`, for which the T/C reads like this: under setting [1], 93 % of control; under setting [2], 76 % of control.
With `CCOC(C)C(/C=N/NC(N)=S)=NNC(N)=S` (configuration not stated), the T/C is 99 % of control (dose: 30.0 mg/kg/injection, schedule: Q01DX010 (ip), vehicle: saline); 100 % of control under setting [16]; 93 % of control (dose: 120.0 mg/kg/injection, schedule: Q01DX010 (ip), vehicle: saline).

These data come from PubChem BioAssay AID268 (DTP/NCI, 2004).
